From patent US5334606A, “Oxazolidindione substituted indole derivatives” (Merck Sharpe & Dohme Ltd., priority 1991, dated 1994)

Molecular target: T1, human neurokinin-1- receptor (NK1R) (Homo sapiens, UniProt P25103)
T1 construct: expressed in transfected cells
Assay: 125I-substance P binding assay, human NK1R expressed in COS or CHO cells (Substance P antagonism)
Conditions: displacement of 125I-substance P, 4° C. or room temperature, 1 hour
Method: SUBSTANCE P ANTAGONISM ASSAY
A. Receptor Expression in Monkey Kidney Cell Line (COS)
To express the cloned human neurokinin-1- receptor (NK1R) transiently in COS, the cDNA for the human NK1R was cloned into the expression vector pCDM9 which was derived from pCDM8 (INVITROGEN) by inserting the ampicillin resistance gene (nucleotide 1973 to 2964 from BLUESCRIPT SK+ (trademark, STRATAGENE, La Jolla, Calif., USA)) into the Sac II site. Transfection of 20 μg of the plasmid DNA into 10 million COS cells was achieved by electropotation in 800 μl of transfection buffer (135 mM NaCl, 1.2 mM CaCl2, 1.2 mM MgCl2, 2.4 mM K2 HPO4, 0.6 mM KH2 PO4, 10 mM glucose, 10 mM N-2-hydroxyethyl-piperazine-N'-2-ethane sulphonic acid (HEPES) pH 7.4) at 260 V and 950 μF using the IBI GENEZAPPER (trademark IBI, New Haven, Conn., USA). The cells were incubated in 10% fetal calf serum, 2 mM glutamine, 100U/ml penicillin-streptomycin, and 90% DMEM media (GIBCO, Grand Island, N.Y., USA) in 5% CO2 at 37° C. for three days before the binding assay.
B. Stable Expression in Chinese Hamster Ovarian Cell Line (CHO)
To establish a stable cell line expressing cloned human NK1R, the cDNA was subcloned into the vector pRcCMV (INVITROGEN). Transfection of 20 μg of the plasmid DNA into CHO cells was achieved by electroporation in 800 μl of transfection buffer supplemented with 0.625 mg/ml Herring sperm DNA at 300 V and 950 μF using the IBI GENEZAPPER (IBI). The transfected cells were incubated in CHO media [10% fetal calf serum, 100 U/ml penicillin-streptomycin, 2 mM glutamine, 1/500 hypoxanthinethymidine (ATCC), 90% IMDM media (JRH BIOSCIENCES, Lenexa, Kans., USA), 0.7 mg/ml G418 (GIBCO)] in 5% CO2 at 37° C. until colonies were visible. Each colony was separated and propagated. The cell clone with the highest number of human NK1R was selected.
C. Assay Protocol using COS or CHO
The binding assay of human NK1R expressed in either COS or CHO cells is based on the use of ^125 I-substance P (^125 I-SP, from DU PONT, Boston, Mass.) as a radioactively labeled ligand which competes with unlabeled substance P or any other ligand for binding to the human NK1R. Monolayer cell cultures of COS or CHO were dissociated by the non-enzymatic solution (SPECIALTY MEDIA, Lavellette, N.J.) and resuspended in appropriate volume of the binding buffer (50 mM Tris pH 7.5, 5 mM MnCl2, 150 mM NaCl, 0.04 mg/ml bacitracin, 0.004 mg/ml leupeptin, 0.2 mg/ml BSA, 0.01 mM phosphoramidon) such that 200 μl of the cell suspension would give rise to about 10,000 cpm of specific ^125 I-SP binding (approximately 50,000 to 200,000 cells). In the binding assay, 200 μl of cells were added to a tube containing 20 μl of 1.5 to 2.5 nM of ^125 I-SP and 20 μl of unlabeled substance P or any other test compound. The tubes were incubated at 4° C. or at room temperature for 1 hour with gentle shaking. The bound radioactivity was separated from unbound radioactivity by GF/C filter (BRANDEL, Gaithersburg, MD) which was pre-wetted with 0.1% polyethylenimine. The filter was washed with 3 ml of wash buffer (50 mM Tris pH 7.5, 5 mM MnCl2, 150 mM NaCl) three times and its radioactivity was determined by gamma counter.

T1 sequence (P25103 whole entry): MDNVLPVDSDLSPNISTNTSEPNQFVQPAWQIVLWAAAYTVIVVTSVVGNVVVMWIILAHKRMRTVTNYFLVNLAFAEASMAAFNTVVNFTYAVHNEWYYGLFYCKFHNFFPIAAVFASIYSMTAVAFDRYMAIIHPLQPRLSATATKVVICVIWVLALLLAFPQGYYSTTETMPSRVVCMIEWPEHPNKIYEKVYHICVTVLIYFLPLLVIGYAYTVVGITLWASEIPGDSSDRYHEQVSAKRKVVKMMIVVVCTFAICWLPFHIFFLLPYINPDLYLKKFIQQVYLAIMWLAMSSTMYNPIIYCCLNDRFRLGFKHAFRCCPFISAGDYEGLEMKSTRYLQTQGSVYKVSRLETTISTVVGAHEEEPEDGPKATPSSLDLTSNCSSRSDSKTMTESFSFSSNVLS

| Compound | IC50 [µM] |
| --- | --- |
| 1-Phenylcarboxamide-3-(3,5-bistrifluoromethylbenzyl)-5-(indol-3-ylmethylene)imidazolidine-2,4-dione [Example 13] | 0.41 |
| O=C1OC(Cc2c[nH]c3ccccc23)C(=O)N1Cc1cc(C(F)(F)F)cc(C(F)(F)F)c1 (stereo not drawn) [Example 1] | 0.021 |
| O=C1NC(Cc2c[nH]c3ccccc23)C(=O)N1Cc1cc(C(F)(F)F)cc(C(F)(F)F)c1 (stereo not drawn) [Example 2] | 0.4 |
| O=C1CC(Cc2c[nH]c3ccccc23)C(=O)N1Cc1cc(C(F)(F)F)cc(C(F)(F)F)c1 (stereo not drawn) [Example 3] | 0.25 |
| Cn1cc(CC2(C)OC(=O)N(Cc3cc(C(F)(F)F)cc(C(F)(F)F)c3)C2=O)c2ccccc21 (stereo not drawn) [Example 4a, 3-(3,5-Bistrifluoromethylbenzyl)-5-methyl-5-(1-methylindol-3-ylmethylene)oxazolidin-2,4-dione] | 0.014 |
| CC1(Cc2c[nH]c3ccccc23)OC(=O)N(Cc2cc(C(F)(F)F)cc(C(F)(F)F)c2)C1=O (stereo not drawn) [Example 4b] | 0.14 |
| Cn1cc(CC2OC(=O)N(Cc3cc(C(F)(F)F)cc(C(F)(F)F)c3)C2=O)c2ccccc21 (stereo not drawn) [Example 4c] | 0.3 |
| COc1ccc2[nH]cc(CC3OC(=O)N(Cc4cc(C(F)(F)F)cc(C(F)(F)F)c4)C3=O)c2c1 (stereo not drawn) [Example 5] | 0.3 |
| C=CCC1(Cc2c[nH]c3ccccc23)OC(=O)N(Cc2cc(C(F)(F)F)cc(C(F)(F)F)c2)C1=O (stereo not drawn) [Example 6] | 0.05 |
| O=C1OC(Cc2c[nH]c3ccccc23)C(=O)N1Cc1cc(Cl)cc(Cl)c1 (stereo not drawn) [Example 7] | 0.2 |
| O=C1O[C@@H](Cc2c[nH]c3ccccc23)C(=O)N1Cc1cc(C(F)(F)F)cc(C(F)(F)F)c1 [Example 8] | 0.017 |
| CC1(Cc2ccc3ccccc3c2)OC(=O)N(Cc2cc(C(F)(F)F)cc(C(F)(F)F)c2)C1=O (stereo not drawn) [Example 9, 5-Methyl-5-(2-naphthylmethyl)-3-(3,5-bistrifluoromethylbenzyl)oxazolidin-2,4-dione] | > 1 |
| CC1(Cc2ccc(Cl)c(Cl)c2)OC(=O)N(Cc2cc(C(F)(F)F)cc(C(F)(F)F)c2)C1=O (stereo not drawn) [Example 10, 5-Methyl-5(3,4-dichlorobenzyl)-3-(3,5-bistrifluoromethylbenzyl)oxazolidin-2,4-dione] | 0.1 |
| O=C1C(Cc2c[nH]c3ccccc23)N(Cc2ccccc2)C(=O)N1Cc1cc(C(F)(F)F)cc(C(F)(F)F)c1 (stereo not drawn) [Example 11] | 0.63 |
| CN1C(=O)N(Cc2cc(C(F)(F)F)cc(C(F)(F)F)c2)C(=O)C1Cc1c[nH]c2ccccc12 (stereo not drawn) [Example 12] | 0.16 |
| CNC(=O)N1C(=O)N(Cc2cc(C(F)(F)F)cc(C(F)(F)F)c2)C(=O)C1Cc1c[nH]c2ccccc12 (stereo not drawn) [Example 14] | 0.085 |

Tested on: not given
Assay: not given
Conditions: literature, J. Med. Chem., 33(5), 1418-23 (1990); cited from earlier work

| Compound | antihyperglycaemic activity |
| --- | --- |
| O=C1NC(=O)C(Cc2ccc3ccccc3c2)S1 (stereo not drawn) | antihyperglycaemic activity |

Tested on: not given
Assay: not given
Conditions: literature, J. Med. Chem., 24(4), 465-8 (1981); cited from earlier work

| Compound | anticonvulsant activity |
| --- | --- |
| CN1C(=O)NC(Cc2cccc(Br)c2)C1=O (stereo not drawn) | weak anticonvulsant activity |
